The target in the test is SARS-CoV-2 3CL Protease (Severe acute respiratory syndrome coronavirus 2, UniProt P0DTD1). Description: 3CL protease SARS-CoV-2 activity (M^Pro assay), fluorescence kit. Format: biochemical. To be noted: for Kinetic Activity: positive control 120; for ∆RFU: ∆T 30, positive control 100.

The values below come from PMC9572397, “Garcinia cambogia Phenolics as Potent Anti-COVID-19 Agents: Phytochemical Profiling, Biological Activities, and Molecular Docking” (Plants, 2022).

As a reminder, the IC50 is the concentration that gives 50% inhibition. A lower IC50 goes with inhibition by little substance. Compound `O=c1cc(-c2ccc(O)c(-c3c(O)cc(O)c4c(=O)cc(-c5ccc(O)cc5)oc34)c2)oc2cc(O)cc(O)c12` [Compound 2, amentoflavone] gave an IC50 of 136 µM. Moreover, where the note is “Conc. 0.1”, the “Kinetic Activity” value turned out to be 117.505 and the “∆RFU” value is 97.92. For the setting “Conc. 1”, the “Kinetic Activity” value was found to be 112.981 and the “∆RFU” value is on record as 94.15. In addition, where the note is “Conc. 10”, the “Kinetic Activity” value is reported as 94.7529 and the “∆RFU” value amounted to 78.96. For the setting “Conc. 100”, the “Kinetic Activity” value was found to be 44.4244 and the “∆RFU” value came out at 37.02.

`O=c1cc(-c2ccc(O)cc2)oc2c([C@@H]3O[C@H](CO)[C@@H](O)[C@H](O)[C@H]3O)c(O)cc(O)c12` [Compound 3, vitexin] gave an IC50 of 231 µM. Moreover, under “Conc. 0.1”, the “Kinetic Activity” value came out at 117.109 and the “∆RFU” value came out at 97.59. Moreover, under “Conc. 1”, the “Kinetic Activity” value was 110.257 and the “∆RFU” value was 91.88. Also, where the note is “Conc. 10”, the “Kinetic Activity” value is reported as 99.133 and the “∆RFU” value came out at 82.61. Besides, where the note is “Conc. 100”, the “Kinetic Activity” value turned out to be 46.7405 and the “∆RFU” value stood at 38.95.

Turning to `C[C@@H]1O[C@@H](OC[C@H]2O[C@@H](Oc3c(-c4ccc(O)c(O)c4)oc4cc(O)cc(O)c4c3=O)[C@H](O)[C@@H](O)[C@@H]2O)[C@H](O)[C@H](O)[C@H]1O` [Compound 4, rutin], the “Kinetic Activity” value is, setting by setting: (Conc. 0.1) 116.077; (Conc. 1) 110.065; (Conc. 10) 92.9049; (Conc. 100) 32.3043. Also, the “∆RFU” value is, setting by setting: (Conc. 0.1) 96.73; (Conc. 1) 91.72; (Conc. 10) 77.42; (Conc. 100) 26.92.

`C[C@@H]1O[C@@H](O[C@H]2[C@H](Oc3cc(O)c4c(c3)O[C@H](c3ccc(O)cc3)CC4=O)O[C@H](CO)[C@@H](O)[C@@H]2O)[C@H](O)[C@H](O)[C@H]1O` [Compound 5, naringin] showed an IC50 of 28.6 µM. Where the note is “Conc. 0.1”, the “Kinetic Activity” value was 117.637 and the “∆RFU” value came out at 98.03. For the same compound, for the setting “Conc. 1”, the “Kinetic Activity” value came to 101.965 and the “∆RFU” value came out at 84.97. In addition, under “Conc. 10”, the “Kinetic Activity” value came to 80.2328 and the “∆RFU” value is 66.86. Under “Conc. 100”, the “Kinetic Activity” value came to 25.8243 and the “∆RFU” value turned out to be 21.52. Also, the “reduction of the protease activity (in words)” value (final concentration of 50 μM, compared to the plumbagin positive standard) was “significant reduction”.

`Oc1cc(O)c2c(c1)O[C@H](c1ccc(O)c(O)c1)[C@@H](O)C2` [Compound 6, catechin] had an IC50 of 90.3 µM. Besides, under “Conc. 0.1”, the “Kinetic Activity” value was determined as 113.953 and the “∆RFU” value worked out at 94.96. Where the note is “Conc. 1”, the “Kinetic Activity” value is listed as 107.173 and the “∆RFU” value stood at 89.31. Also, where the note is “Conc. 10”, the “Kinetic Activity” value is reported as 83.2328 and the “∆RFU” value stood at 69.36. Where the note is “Conc. 100”, the “Kinetic Activity” value came to 33.3003 and the “∆RFU” value was 27.75.

In turn, `O=C(O)/C=C/c1ccc(O)cc1` [Compound 7, p-coumaric acid] showed an IC50 of 471 µM. For the same compound, under “Conc. 0.1”, the “Kinetic Activity” value stood at 118.477 and the “∆RFU” value was 98.73. Further, where the note is “Conc. 1”, the “Kinetic Activity” value was 113.905 and the “∆RFU” value is recorded as 94.92. For the setting “Conc. 10”, the “Kinetic Activity” value was 100.333 and the “∆RFU” value came out at 83.61. Where the note is “Conc. 100”, the “Kinetic Activity” value came out at 42.0724 and the “∆RFU” value is 35.06.

Turning to `O=C(O)c1cc(O)c(O)c(O)c1` [Compound 8, gallic acid], the IC50 is 178 µM. Further, where the note is “Conc. 0.1”, the “Kinetic Activity” value is on record as 117.505 and the “∆RFU” value is 97.92. Also, for the setting “Conc. 1”, the “Kinetic Activity” value was found to be 109.237 and the “∆RFU” value worked out at 91.03. In addition, where the note is “Conc. 10”, the “Kinetic Activity” value is 93.0969 and the “∆RFU” value is 77.58. For the same compound, under “Conc. 100”, the “Kinetic Activity” value turned out to be 29.8323 and the “∆RFU” value stood at 24.86.

Compound `CC1=CC(=O)c2c(O)cccc2C1=O` [Plumbagin, reference compound] had an IC50 of 87.6 µM. Where the note is “Conc. 0.1”, the “Kinetic Activity” value amounted to 115.069 and the “∆RFU” value is 95.89. Where the note is “Conc. 1”, the “Kinetic Activity” value came out at 102.853 and the “∆RFU” value is listed as 85.71. Further, where the note is “Conc. 10”, the “Kinetic Activity” value is listed as 77.9528 and the “∆RFU” value came out at 64.96. In addition, where the note is “Conc. 100”, the “Kinetic Activity” value was 27.0243 and the “∆RFU” value is recorded as 22.52.
